Laboratory results published in patent US12410157B2, “Compound useful as toll-like receptor 7 activation inhibitor” (TOYAMA PREFECTURAL UNIVERSITY, priority 2020, dated 2025).
Where “and” joins values, the source holds several entries; their conditions need not be identical. Identical values can stand only once.

Tests used:
[1] = tested on: Cytochrome P450 (CYP), mouse liver microsomes; experiment: Metabolic stability (CYP) using mouse liver microsomes, HPLC; format: in vitro ADME; conditions: for Area (%) of peak: LC-UV (220 nm)
Procedure: For CB-7, B2-24, and B2-5A, 10 mg/mL DMSO solution was used. Each chemical compound was diluted with acetonitrile to 0.1 mg/mL, which was used as the analytical standard. Mouse liver microsomal fractions were rapidly thawed in a warm bath at 37° C. and kept on ice. Reaction buffer containing CYP cofactor was prepared on ice and mixed with the microsomal fractions. The reaction solution was preincubated at 37° C. for 5 minutes, and then the test substance solution was added and mixed well by pipetting. The volume of the reaction solution was 200 μL and the final concentration of the test substance was 0.1 mg/mL. The reaction solution was incubated at 37° C. for 30 minutes or 2 hours, and the reaction was stopped by adding 3 times the volume of acetonitrile and vortexing. After the reaction was stopped, the samples were centrifuged, and each supernatant was separated and dried in an evaporator. 50 μL of 50% acetonitrile solution was added to each solidified sample, and each sample was re-dissolved by vortexing for 5 minutes. Each redissolved solution was centrifuged, and each supernatant was subjected to HPLC analysis using a HITACHI Lachrom ELITE (HITACHI) as a HPLC system and COSMOSIL 5C18-MS-II, 4.6 mmI.D.×150 mm (nacalai tesque Co.) as a column.
Metabolic stability analysis of CB-7 and B2-24-4-5A·HCOOH was performed by the method of Example 5.

[2] = Plasma concentration in normal mice after oral administration; format: in vivo, mice (C57BL/6N); conditions: C57BL/6N mice, 1 mg orally
Procedure: Plasma concentrations of CB-7 or B2-24-4-5A·HCOOH were measured in normal mice (C57BL/6N, 11 weeks old, female) after oral administration. 1 mg of CB-7 or B2-24-4-5A·HCOOH was administered orally to mice C57BL/6N. After 0.5, 1, 2, 4, or 8 hours, blood was collected from mice C57BL/6N to prepare plasma. The concentration of CB-7 or B2-24-4-5A·HCOOH in the plasma was measured by LC/MS/MS.

[3] = Plasma concentration in mouse model of systemic lupus erythematosus after oral administration; format: in vivo; conditions: NZBWF1 mice, 5 mg/kg orally
Procedure: Plasma concentrations of B2-24-4-5A·HCOOH were determined after oral administration of B2-24-4-5A·HCOOH in a mouse model of systemic lupus erythematosus (NZBWF1, 20 weeks old, female). 5 mg/kg of B2-24-4-5A·HCOOH was administered orally to NZBWF1 mice. After 0.5, 1, 2, 4, 8, 16, or 24 hours, blood was collected from NZBWF1 mice to prepare plasma. The concentration of B2-24-4-5A·HCOOH in the plasma was determined by LC/MS/MS.

[4] = tested on: systemic lupus erythematosus model mice (NZBWF1); experiment: Therapeutic effect in mouse model of spontaneous systemic lupus erythematosus; format: in vivo
Procedure: Systemic lupus erythematosus model mice (NZBWF1, 20 weeks old, female, n=55) were divided into saline-administered group (control, n=25), B2-24-4-5A·HCOOH-administered group (n=10), B2-24-4·HCOOH-administered group (n=5) and HCQ-administered group (n=15). The saline-administered group received saline (100 l) orally once a day, every day; the B2-24-4-5A·HCOOH-administered group received 10 mg/kg of B2-24-4-5A·HCOOH (100 l) orally once a day, every day; the B2-24-4·HCOOH-administered group received 10 mg/kg of B2-24-4·HCOOH (100 l) orally once a day, every day; the HCQ-administered group received 10 mg/kg of HCQ (100 l) orally once a day, every day. Fifteen weeks after the start of treatment, urine was collected from surviving mice in the saline-administered group (control, n=17), B2-24-4-5A·HCOOH-administered group (n=10), B2-24-4·HCOOH-administered group (n=5), and HCQ-administered group (n=12), and the mice were euthanized. After euthanasia, blood was drawn from the abdominal aorta of the mice, and the kidneys and spleen were removed.
Mice that died of natural causes during the 15-week period from the start of treatment were counted as deaths, and survival analysis was performed using the Kaplan Meier method. Blood collected from the abdominal aorta of each mouse, excluding the deceased cases, was centrifuged and serum was prepared. Determination of urea nitrogen and creatinine levels in serum was entrusted to Oriental Yeast Co. Albumin levels in urine were determined by ELISA (used kit: Levis Urinary Albumin-Mouse (S-type) (trade name) (Fujifilm Wako Shibayagi Corporation)). The removed kidneys were fixed with 4% (w/v) paraformaldehyde, and immunohistochemical staining was entrusted to Morpho Technology, Inc. In PAS-stained kidney tissue sections, histological findings of 100 glomeruli were evaluated. For increased cells and substrate in the mesangial area, endothelial cell swelling and cellular infiltration of the capillary lumen (intratubular proliferation), and glomeruli with inflammatory crescents (extratubular proliferation), each of the 100 glomeruli was assigned a grade from grade 0 to grade 2 according to severity and scored on a 6-point scale.
FIG. 10F is a photograph showing C3 deposition in the glomeruli of a mouse (#1) in the saline-administered group, a mouse (#10) in the B2-24-4-5A·HCOOH-administered group, a mouse (#4) in the B2-24-4·HCOOH-administered group and a mouse (#14) in the HCQ-administered group. […] In the renal tissue sections of a mouse (#1) in the saline-administered group, findings of active glomerulonephritis such as diffuse mesangial and intratubular proliferation were observed. […] The plots in FIGS. 10B, 10C, and 10D show the data for each individual, each bold line is the mean of the group data, and each error bar standard error. Scale bars in FIGS. 10E and 10F represent 100 μm. […]

[5] = female, mouse, plasma, po, LC/MS/MS

With `C=C(C)[C@@H]1CC[C@]2(COC(=O)C2)C[C@H]1c1ccc(CN2CCNCC2)cc1` [B2-24-4-5A·HCOOH] the “Number of peaks detected by HPLC” value ([1]; Example 9) was 6, the “Area (%) of peak” value ([1]; Example 9, 0 h) was 100% and the “Area (%) of peak” value ([1]; Example 9, incubation 0.5 h) was 95.4%. The “Area (%) of peak” value ([1]; Example 9, incubation 2.0 h) was 88.4%, the “Drug metabolism mainly by CYPs compared to CB-7” value ([1]; words) was “significantly improved drug metabolism” and the “Persistence in plasma compared to CB-7” value [2] was “remains in plasma for a longer time than CB-7”. The concentration at 8 h [2, 5] was ~500 ng/mL, the “Plasma level after 8 hours” value [3] was “near-bottom level” and the concentration at 0.5 h [3, 5] was 88.1 ng/mL. The “Surviving mice fifteen weeks after the start of treatment” value ([4]; 10 mg/kg orally once a day, groups started with n=10, n=5, n=15 (HCQ)) was 10, the score ([4]; per mouse, histological score on a 6-point scale) was 0.23 and 0.15 and 0.42 and 0.09 (2×) and 0.24 and 0.03 and 0.04 and 0.14 and 0.52 and the “Inside 0” value ([4]; per mouse, of 100 glomeruli, endothelial cell swelling and cellular infiltration of capillary lumen, Grade 0) was 99 (2×) and 100 (3×) and 78 and 96 and 94 and 97 and 74. The “Inside 1” value ([4]; per mouse, of 100 glomeruli, endothelial cell swelling and cellular infiltration of capillary lumen, Grade 1) was 1 (2×) and 0 (3×) and 18 and 4 and 6 and 3 and 20, the “Inside 2” value ([4]; per mouse, of 100 glomeruli, endothelial cell swelling and cellular infiltration of capillary lumen, Grade 2) was 0 (8×) and 4 and 6 and the “Outside 0” value ([4]; per mouse, of 100 glomeruli, glomerulus with semilunar, Grade 0) was 99 and 100 (9×). The “Outside 1” value ([4]; per mouse, of 100 glomeruli, glomerulus with semilunar, Grade 1) was 1 and 0 (9×), the “Outside 2” value ([4]; per mouse, of 100 glomeruli, glomerulus with semilunar, Grade 2) was 0 and the Mes0 ([4]; per mouse, of 100 glomeruli, increase in cells and substrates in the mesangium region, Grade 0: None, 10 mg/kg orally, 15 weeks, 10 mg/kg) was 80 (3×) and 86 (2×) and 92 (2×) and 97 and 96 and 94. For the same compound, the Mes1 ([4]; per mouse, of 100 glomeruli, mesangium region, Grade 1: Moderate or lower) was 19 and 13 and 12 and 8 (2×) and 20 (2×) and 3 and 4 and 6 and the Mes2 ([4]; per mouse, of 100 glomeruli, mesangium region, Grade 2: Moderate or higher) was 1 (2×) and 2 and 0 (7×).
